Reference: ChEMBL document CHEMBL1201862, “PubChem BioAssay data set” (2004)
“And” between values parts separate entries of the source, which are not always exact repeats. Equal entries are not always repeated. The source made the active and inactive calls.

Experiments:
[1] = off-target signal loss in HeLa-CEM21 co-culture – HeLa F-luc CTL cells, cherry-picked, counter-screen for HIV-1 Env fusion inhibitor project, dose response (AID 652040); format: functional, cell-based;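 further: potency for signal decrease marking cytotoxic or nonspecific inhibition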
[2] = molecular target: Beta-2 adrenergic receptor (Homo sapiens, UniProt P07550); assay: beta2AR agonists driving receptor internalization, dose response, cell-based, FAP fluorogen, flow cytometry, cherry pick 1 (AID 588763); format: functional
[3] = inhibitors of HIV Env-driven cell fusion, dose response, cherry-pick (AID 652057); format: functional, cell-based
[4] = inhibitors of clade B AD8 Env fusion, dose response, cell-based, cherry-pick (AID 652062); format: functional;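 further: luciferase signal from cell-cell fusion driven by HIV-1 clade B AD8 Env; potency is for inhibitors of fusion seen as a drop in luminescence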
[5] = CEM21 cell cytotoxicity, dose response, cytotoxicity control, plate reader, dry powder (AID 687026); format: functional, cell-based
[6] = ZM109 Env clade C HIV-1 fusion inhibitors, dose response, HeLa effector, CEM target cells, luciferase, cherry-pick (AID 652058); format: functional, cell-based
[7] = cells
[8] = molecular target: T1, Oxysterols receptor LXR-beta (Homo sapiens, UniProt P55055); format: functional, cell-based;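 further: Cell-based luminescence dose-response assay of agonist activity at LXR, run as a confirmatory counterscreen to a daf-12 agonist screen; HEK293 cells with Gal4-LXR fusion and GAL4-driven luciferase reporter; agonist potency from rising luciferase signal of a Gal4-LXR reporter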
T1 sequence (P55055 whole entry): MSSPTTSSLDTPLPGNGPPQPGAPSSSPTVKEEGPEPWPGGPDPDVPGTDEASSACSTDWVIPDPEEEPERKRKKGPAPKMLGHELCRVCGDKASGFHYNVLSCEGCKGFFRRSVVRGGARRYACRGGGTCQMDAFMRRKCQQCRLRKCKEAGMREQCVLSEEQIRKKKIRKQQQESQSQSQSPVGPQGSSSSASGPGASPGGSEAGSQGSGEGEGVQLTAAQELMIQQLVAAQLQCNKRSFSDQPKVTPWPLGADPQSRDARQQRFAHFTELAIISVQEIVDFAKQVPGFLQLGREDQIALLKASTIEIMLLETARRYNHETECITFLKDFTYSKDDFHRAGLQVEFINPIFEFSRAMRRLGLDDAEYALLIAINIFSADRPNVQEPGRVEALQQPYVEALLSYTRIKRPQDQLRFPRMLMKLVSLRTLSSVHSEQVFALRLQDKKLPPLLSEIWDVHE

[9] = molecular target: T2, Protein skinhead-1 (Caenorhabditis elegans, UniProt P34707); format: functional
T2 sequence (P34707 whole entry): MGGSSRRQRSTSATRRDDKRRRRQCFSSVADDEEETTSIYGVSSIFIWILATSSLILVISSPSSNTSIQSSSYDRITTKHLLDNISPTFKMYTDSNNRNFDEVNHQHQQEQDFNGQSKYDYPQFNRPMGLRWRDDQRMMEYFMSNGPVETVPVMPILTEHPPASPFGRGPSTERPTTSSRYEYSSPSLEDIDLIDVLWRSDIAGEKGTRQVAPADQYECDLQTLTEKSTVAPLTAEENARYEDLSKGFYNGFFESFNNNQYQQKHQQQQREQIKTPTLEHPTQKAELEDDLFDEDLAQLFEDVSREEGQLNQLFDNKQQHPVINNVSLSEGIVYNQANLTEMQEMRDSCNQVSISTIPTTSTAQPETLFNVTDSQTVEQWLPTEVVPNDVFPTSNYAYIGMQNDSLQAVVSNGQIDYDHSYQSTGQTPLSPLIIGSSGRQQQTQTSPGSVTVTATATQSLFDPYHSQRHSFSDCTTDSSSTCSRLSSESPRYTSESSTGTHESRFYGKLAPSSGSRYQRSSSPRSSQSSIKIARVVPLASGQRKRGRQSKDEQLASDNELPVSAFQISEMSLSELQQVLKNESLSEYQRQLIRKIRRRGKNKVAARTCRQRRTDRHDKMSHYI

[10] = cells; remark: listed apart in the source
[11] = molecular target: Major prion protein (Homo sapiens, UniProt P04156); format: functional, cell-based
[12] = system: HEK293; assay: HEK cell cytotoxicity by LDH release, dose response, cytotoxicity control for IDE activator project, fluorescence, HEK cells (AID 588440); format: functional, cell-based; details: Homo sapiens;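 further: cytotoxicity by LDH release measuring loss of membrane integrity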
[13] = molecular target: T3, Microphthalmia-associated transcription factor (Homo sapiens, UniProt O75030); assay: TRPM1 promoter luciferase signal decrease, dose response, MITF inhibitor project, cell-based, SK-MEL-5, cherry-picked, set 3 (AID 493073); format: functional
T3 sequence (O75030 whole entry): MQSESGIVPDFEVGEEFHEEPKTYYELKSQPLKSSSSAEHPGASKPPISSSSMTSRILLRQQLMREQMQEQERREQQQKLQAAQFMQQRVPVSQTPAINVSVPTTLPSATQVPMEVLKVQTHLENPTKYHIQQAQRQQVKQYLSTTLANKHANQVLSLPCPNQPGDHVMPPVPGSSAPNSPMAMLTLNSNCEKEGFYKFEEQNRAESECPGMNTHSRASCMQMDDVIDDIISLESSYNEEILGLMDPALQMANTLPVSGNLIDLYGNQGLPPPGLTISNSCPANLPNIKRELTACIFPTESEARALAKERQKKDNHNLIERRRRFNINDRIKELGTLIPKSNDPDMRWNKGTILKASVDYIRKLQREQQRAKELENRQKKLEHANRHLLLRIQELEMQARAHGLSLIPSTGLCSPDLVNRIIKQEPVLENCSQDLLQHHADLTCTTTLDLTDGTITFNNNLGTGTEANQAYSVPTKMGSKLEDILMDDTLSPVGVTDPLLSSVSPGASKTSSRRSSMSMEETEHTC

[14] = HEK293T cytotoxicity, dose response, cytotoxicity control for miR-122 modulator project, cell-based, activator set, cherry-pick (AID 720690); format: functional;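 further: HEK293T human cells scored for general mammalian cytotoxicity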
[15] = system: HEK293; assay: optical interference in Abeta FP readout, dose response, artefact control for IDE activator project, biochemical, fluorescence polarization (AID 588442); format: functional, cell-based; details: Homo sapiens
[16] = HEp-2 cell cytotoxicity, dose response, cytotoxicity control for RSV inhibitor project, HTS (AID 2410); format: functional; details: human respiratory syncytial virus
[17] = HEK293T cytotoxicity, dose response, cytotoxicity control for miR-122 modulator project, cell-based, inhibitor set, cherry-pick, set 2 (AID 720697); format: functional
[18] = miR-122 activators in hepatoma reporter cells, dose response, cell-based, Huh7 psiCHECK-miR122, Renilla luciferase, cherry-picked (AID 651956); format: functional;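 further: huh7 hepatoma cells stably carrying a psiCHECK-2 miR-122 sensor plasmid; renilla luciferase signal reporting endogenous miR-122 activity after 48 h compound exposure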
[19] = molecular target: T4, Insulin-degrading enzyme (Homo sapiens, UniProt P14735); assay: activators of recombinant IDE enzyme, dose response, counter-screen for IDE activator project, biochemical, fluorescence polarization (AID 588681)
T4 sequence (P14735 whole entry): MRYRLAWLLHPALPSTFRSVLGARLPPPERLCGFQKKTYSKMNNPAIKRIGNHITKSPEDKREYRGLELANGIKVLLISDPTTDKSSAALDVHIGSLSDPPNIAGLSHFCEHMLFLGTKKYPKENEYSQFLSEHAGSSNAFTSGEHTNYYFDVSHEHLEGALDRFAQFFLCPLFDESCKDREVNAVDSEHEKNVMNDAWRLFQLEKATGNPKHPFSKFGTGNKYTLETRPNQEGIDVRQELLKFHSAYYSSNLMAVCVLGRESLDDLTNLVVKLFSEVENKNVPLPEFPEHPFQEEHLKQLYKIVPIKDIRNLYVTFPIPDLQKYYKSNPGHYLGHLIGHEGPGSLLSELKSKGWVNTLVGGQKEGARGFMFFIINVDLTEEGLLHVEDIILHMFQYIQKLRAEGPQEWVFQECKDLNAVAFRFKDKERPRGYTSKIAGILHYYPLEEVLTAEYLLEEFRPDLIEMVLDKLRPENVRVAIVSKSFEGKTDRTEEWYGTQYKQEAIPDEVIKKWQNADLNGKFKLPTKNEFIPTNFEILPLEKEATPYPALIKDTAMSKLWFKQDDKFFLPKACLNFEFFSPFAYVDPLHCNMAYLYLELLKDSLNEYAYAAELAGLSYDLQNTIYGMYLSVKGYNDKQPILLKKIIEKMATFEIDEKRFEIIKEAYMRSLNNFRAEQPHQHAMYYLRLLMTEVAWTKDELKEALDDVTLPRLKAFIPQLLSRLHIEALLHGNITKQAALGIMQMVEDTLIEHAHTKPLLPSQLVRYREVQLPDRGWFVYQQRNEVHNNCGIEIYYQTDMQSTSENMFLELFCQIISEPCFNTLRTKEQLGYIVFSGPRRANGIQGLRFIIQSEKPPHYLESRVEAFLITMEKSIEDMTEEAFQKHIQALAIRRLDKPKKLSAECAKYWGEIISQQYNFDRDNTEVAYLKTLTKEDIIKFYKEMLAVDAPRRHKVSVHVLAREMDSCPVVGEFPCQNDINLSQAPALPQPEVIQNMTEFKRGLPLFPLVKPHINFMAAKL

[20] = molecular target: T4, Insulin-degrading enzyme; assay: activators of endogenous IDE in HEK cells, dose response, cell-based, fluorescence polarization (AID 588439); format: functional
[21] = system: A-375; assay: A375 melanoma cell viability reduction, dose response, counter-screen for MITF modulator project, cherry-pick samples, set 2 (AID 540335); format: functional, cell-based; details: Homo sapiens
[22] = molecular target: T5, DNA repair protein RAD52 homolog (Homo sapiens, UniProt P43351); format: functional, biochemical
T5 sequence (P43351 whole entry): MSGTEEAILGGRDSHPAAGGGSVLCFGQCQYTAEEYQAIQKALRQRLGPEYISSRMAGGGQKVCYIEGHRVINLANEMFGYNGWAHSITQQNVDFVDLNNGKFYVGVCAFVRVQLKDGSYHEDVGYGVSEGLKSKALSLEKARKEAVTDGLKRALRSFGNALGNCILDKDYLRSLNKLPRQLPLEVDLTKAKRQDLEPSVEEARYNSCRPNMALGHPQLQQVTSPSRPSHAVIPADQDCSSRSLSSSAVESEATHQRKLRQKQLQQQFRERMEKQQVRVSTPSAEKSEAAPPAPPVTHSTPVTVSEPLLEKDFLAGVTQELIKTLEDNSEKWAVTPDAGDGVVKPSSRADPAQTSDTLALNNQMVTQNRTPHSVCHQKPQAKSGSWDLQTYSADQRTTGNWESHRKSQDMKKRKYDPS

[23] = molecular target: Melanocortin receptor 4 (Homo sapiens, UniProt P32245); format: functional, cell-based;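 further: Cell-based assay with luminescence read-out, confirmatory dose-response testing for agonist activity of biased ligands at MC4R; human U2OS cells with tagged receptor and beta-arrestin; potency of agonists that increase receptor coupling to beta-arrestin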
[24] = molecular target: Metabotropic glutamate receptor 5 (Rattus norvegicus, UniProt P31424); assay: Identification of a glycine sulfonamide based non-MPEP site positive allosteric potentiator (PAM) of mGlu5 (calcium_assay).; format: functional

**Q.** For `O=C(CCc1ccc(S(=O)(=O)N2CCOCC2)cc1)Nc1nc(COc2ccccc2)cs1`, which AC50 [1] is on record?
**A.** > 70 µM (inactive)

**Q.** What about the EC50 [2] of the same molecule?
**A.** 1.4 µM (active)

**Q.** And the AC50 [3]?
**A.** 1.65 µM (active)

**Q.** What about the AC50 [4] of the same molecule?
**A.** 4.58 µM (active)

**Q.** And the AC50 [5]?
**A.** > 70 µM (inactive) and 50.5 µM (active)

**Q.** What about the AC50 [6] of the same molecule?
**A.** 1.07 µM (active)

**Q.** For `Fc1ccccc1-c1nc(-c2ccc(Br)o2)no1`, which EC50 [7] is on record?
**A.** > 67.6 µM (inactive)

**Q.** What about the EC50 [8] of the same molecule?
**A.** > 67.6 µM (inactive)

**Q.** What about the IC50 [9] of the same molecule?
**A.** > 100 µM (inactive)

**Q.** Which IC50 [10] does the source give for `CCOC(=O)CSc1nc(Cc2ccccc2)nc2ccccc12` here?
**A.** > 138 µM (inactive)

**Q.** What about the IC50 [11] of the same molecule?
**A.** 4.31 µM (active)

**Q.** With `COc1cccc2sc(N(CCCN(C)C)C(=O)C(c3ccccc3)c3ccccc3)nc12` as the molecule, how does the IC50 [12] read?
**A.** 10.2 µM (inactive)

**Q.** What about the AC50 [13] of the same molecule?
**A.** 15.1 µM (active)

**Q.** What about the AC50 [14] of the same molecule?
**A.** 16.2 µM (active)

**Q.** And the EC50 [15]?
**A.** > 54.7 µM (inactive)

**Q.** And the CC50 [16]?
**A.** 13.6 µM (active)

**Q.** What about the AC50 [17] of the same molecule?
**A.** 1.77 µM (active)

**Q.** And the AC50 [18]?
**A.** 8.07 µM (active)

**Q.** What about the EC50 [19] of the same molecule?
**A.** > 54.7 µM (inactive)

**Q.** And the EC50 [20]?
**A.** 15.1 µM (inactive)

**Q.** And the AC50 [21]?
**A.** 18.3 µM (active)

**Q.** And the AC50 [22]?
**A.** 13.3 µM (active)

**Q.** And the EC50 [23]?
**A.** > 89.2 µM (inactive)

**Q.** For `O=S(=O)(c1ccc(C#Cc2cccc(F)c2)cc1)N1CCOCC1`, which EC50 [24] is on record?
**A.** 0.427 µM
